Converted amounts (≈) assume the structure as drawn. Where two headings read alike, the source gives them in different places.
Columns and labels:
[1] = tested on: Rhinovirus 56; experiment: Anti-rhinovirus activity, cytopathic effect inhibition / neutral red dye uptake, type 56; assay type: cell-based; settings: Enterovirus, WI-38; Table II; read-out: MIC 50 Rhinovirus Type 56
[2] = tested on: Rhinovirus 53; experiment: Anti-rhinovirus activity, cytopathic effect inhibition / neutral red dye uptake, type 53; assay type: cell-based; settings: Enterovirus, WI-38; Table II; read-out: MIC 50 Rhinovirus Type 53
[3] = tested on: Rhinovirus 44; experiment: Anti-rhinovirus activity, cytopathic effect inhibition / neutral red dye uptake, type 44; assay type: cell-based; settings: Enterovirus, WI-38; Table II; read-out: MIC 50 Rhinovirus Type 44
[4] = tested on: Rhinovirus 23; experiment: Anti-rhinovirus activity, cytopathic effect inhibition / neutral red dye uptake, type 23; assay type: cell-based; settings: Enterovirus, WI-38; Table II; read-out: MIC 50 Rhinovirus Type 23
[5] = tested on: Rhinovirus 1A; experiment: Anti-rhinovirus activity, cytopathic effect inhibition / neutral red dye uptake, type 1A; assay type: cell-based; settings: Enterovirus, WI-38
[6] = tested on: Rhinovirus 63; experiment: Anti-rhinovirus activity, cytopathic effect inhibition / neutral red dye uptake, type 63; assay type: cell-based; settings: Enterovirus, WI-38; Table II; read-out: MIC 50 Rhinovirus Type 63
[7] = tested on: Rhinovirus 1B; experiment: Anti-rhinovirus activity, cytopathic effect inhibition / neutral red dye uptake, type 1B; assay type: cell-based; settings: Enterovirus, WI-38; Table II; one of seven commonest serotypes; read-out: MIC 50 Rhinovirus Type 1B
[8] = tested on: Echo-7; experiment: Activity against other picornaviruses, Echo-7; assay type: cell-based; settings: Enterovirus, read-out: MIC 50 Echo 7
[9] = tested on: Rhinovirus 49; experiment: Anti-rhinovirus activity, cytopathic effect inhibition / neutral red dye uptake, type 49; assay type: cell-based; settings: Enterovirus, WI-38; Table II; read-out: MIC 50 Rhinovirus Type 49
[10] = tested on: Rhinovirus 2; experiment: Anti-rhinovirus activity, cytopathic effect inhibition / neutral red dye uptake, type 2; assay type: cell-based; settings: Enterovirus, WI-38; Table II; one of seven commonest serotypes; read-out: MIC 50 Rhinovirus Type 2
[11] = tested on: Coxsacki-B4; experiment: Activity against other picornaviruses, Coxsacki-B4; assay type: cell-based; settings: Enterovirus, read-out: MIC 50 Cox. B4
[12] = tested on: Coxsacki-A9; experiment: Activity against other picornaviruses, Coxsacki-A9; assay type: cell-based; settings: Enterovirus, read-out: MIC 50 Cox. A9
[13] = tested on: Rhinovirus 15; experiment: Anti-rhinovirus activity, cytopathic effect inhibition / neutral red dye uptake, type 15; assay type: cell-based; settings: Enterovirus, WI-38; Table II; one of seven commonest serotypes; read-out: MIC 50 Rhinovirus Type 15
[14] = tested on: Rhinovirus 36; experiment: Anti-rhinovirus activity, cytopathic effect inhibition / neutral red dye uptake, type 36; assay type: cell-based; settings: Enterovirus, WI-38; Table II; read-out: MIC 50 Rhinovirus Type 36
[15] = tested on: WI38 cells; experiment: Toxicity to WI38 cells (change in morphology in / growth inhibition of 25% of the cells); assay type: cell-based
[16] = tested on: Echo-11; experiment: Activity against other picornaviruses, Echo-11; assay type: cell-based; settings: Enterovirus, read-out: MIC 50 Echo 11
[17] = tested on: Rhinovirus 17; experiment: Anti-rhinovirus activity, cytopathic effect inhibition / neutral red dye uptake, type 17; assay type: cell-based; settings: Enterovirus, WI-38; Table II; read-out: MIC 50 Rhinovirus Type 17
[18] = tested on: 20 serotypes of rhinovirus; experiment: Anti-rhinovirus activity against a panel of 20 serotypes; settings: Table II; numerator; denominator 20, but 10 for compound 8 and 6 for compound 30
[19] = tested on: Coxsacki-B1; experiment: Activity against other picornaviruses, Coxsacki-B1; assay type: cell-based; settings: Enterovirus, read-out: MIC 50 Cox. B1
[20] = tested on: Rhinovirus 30; experiment: Anti-rhinovirus activity, cytopathic effect inhibition / neutral red dye uptake, type 30; assay type: cell-based; settings: Enterovirus, WI-38; Table II; read-out: MIC 50 Rhinovirus Type 30
[21] = tested on: Coxsacki-A21; experiment: Activity against other picornaviruses, Coxsacki-A21; assay type: cell-based; settings: Enterovirus, read-out: MIC 50 Cox. A21
[22] = tested on: Rhinovirus 29; experiment: Anti-rhinovirus activity, cytopathic effect inhibition / neutral red dye uptake, type 29; assay type: cell-based; settings: Enterovirus, WI-38; Table II; one of seven commonest serotypes; read-out: MIC 50 Rhinovirus Type 29
[23] = tested on: Rhinovirus 88; experiment: Anti-rhinovirus activity, cytopathic effect inhibition / neutral red dye uptake, type 88; assay type: cell-based; settings: Enterovirus, WI-38; Table II; read-out: MIC 50 Rhinovirus Type 88
[24] = tested on: Rhinovirus 31; experiment: Anti-rhinovirus activity, cytopathic effect inhibition / neutral red dye uptake, type 31; assay type: cell-based; settings: Enterovirus, WI-38; Table II; one of seven commonest serotypes; read-out: MIC 50 Rhinovirus Type 31
[25] = tested on: Rhinovirus 86; experiment: Anti-rhinovirus activity, cytopathic effect inhibition / neutral red dye uptake, type 86; assay type: cell-based; settings: Enterovirus, WI-38; Table II; read-out: MIC 50 Rhinovirus Type 86
[26] = tested on: Rhinovirus 4; experiment: Anti-rhinovirus activity, cytopathic effect inhibition / neutral red dye uptake, type 4; assay type: cell-based; settings: Enterovirus, WI-38; Table II; one of seven commonest serotypes; read-out: MIC 50 Rhinovirus Type 4
[27] = tested on: Rhinovirus 39; experiment: Anti-rhinovirus activity, cytopathic effect inhibition / neutral red dye uptake, type 39; assay type: cell-based; settings: Enterovirus, WI-38; Table I; WI38 cells, 33° C., 3-4 days; read-out: MIC50 Rhinovirus 39
[28] = tested on: Enterovirus serotypes; assay type: cell-based; settings: for All Enterovirus Serotypes (number of serotypes active / tested): Table III, numerator, denominator 7, but 5 for compound 8
[29] = tested on: Rhinovirus 32; experiment: Anti-rhinovirus activity, cytopathic effect inhibition / neutral red dye uptake, type 32; assay type: cell-based; settings: Enterovirus, WI-38; Table II; read-out: MIC 50 Rhinovirus Type 32
[30] = tested on: Polio 1; experiment: microbe, parasite or virus in culture; assay type: cell-based; settings: Enterovirus, read-out: MIC 50 Polio 1
[31] = Table I, WI38 cells, 33° C., 3-4 days, NA = Not active, read-out: MIC50 Rhinovirus 1A
[32] = Table I, concentration with change in morphology in 25% of WI38 cells

Structure (SMILES): Cc1csc(CCCCCCOc2ccc3oc4ccccc4c3c2)n1 [Compound 27]
- EC50 [1]: 5 µg/mL (≈ 13.7 µM)
- EC50 [2]: 10 µg/mL (≈ 27.4 µM)
- EC50 [3]: 10 µg/mL (≈ 27.4 µM)
- IC50 [4]: 5 µg/mL (≈ 13.7 µM)
- EC50 [5, 31]: 10 µg/mL (≈ 27.4 µM)
- EC50 [6]: 25 µg/mL (≈ 68.4 µM)
- IC50 [7]: 5 µg/mL (≈ 13.7 µM)
- IC50 [8]: > 25 µg/mL
- EC50 [9]: > 25 µg/mL
- IC50 [10]: > 25 µg/mL
- IC50 [11]: > 25 µg/mL
- EC50 [12]: 5 µg/mL (≈ 13.7 µM)
- IC50 [13]: 10 µg/mL (≈ 27.4 µM)
- EC50 [14]: > 25 µg/mL
- Toxicity [15, 32]: 50 µg/mL
- Toxicity ([15]; Table II): 50 µg/mL
- Toxicity ([15]; Table III): 50 µg/mL
- IC50 [16]: > 25 µg/mL
- IC50 [17]: 10 µg/mL (≈ 27.4 µM)
- All Rhinovirus Serotypes (number of serotypes active / tested) [18]: 17
- IC50 [19]: 10 µg/mL (≈ 27.4 µM)
- IC50 [20]: 10 µg/mL (≈ 27.4 µM)
- IC50 [21]: 10 µg/mL (≈ 27.4 µM)
- IC50 [22]: 25 µg/mL (≈ 68.4 µM)
- EC50 [23]: > 25 µg/mL
- EC50 [24]: 10 µg/mL (≈ 27.4 µM)
- EC50 [25]: 1 µg/mL (≈ 2.74 µM)
- IC50 [26]: 25 µg/mL (≈ 68.4 µM)
- EC50 [27]: 10 µg/mL (≈ 27.4 µM)
- inhibitory activity against the members of the Entero virus family [28]: remarkable inhibitory activity
- All Enterovirus Serotypes (number of serotypes active / tested) [28]: 3
- EC50 [29]: 10 µg/mL (≈ 27.4 µM)
- EC50 [30]: > 25 µg/mL

Structure (SMILES): Cc1csc(CCCCCCCOc2ccc3oc4ccccc4c3c2)n1 [Compound 15]
- EC50 [1]: 5 µg/mL (≈ 13.2 µM)
- EC50 [2]: > 25 µg/mL
- EC50 [3]: 1 µg/mL (≈ 2.63 µM)
- IC50 [4]: 10 µg/mL (≈ 26.3 µM)
- EC50 [5, 31]: 10 µg/mL (≈ 26.3 µM)
- EC50 [6]: > 25 µg/mL
- IC50 [7]: 5 µg/mL (≈ 13.2 µM)
- IC50 [8]: 10 µg/mL (≈ 26.3 µM)
- EC50 [9]: > 25 µg/mL
- IC50 [10]: > 25 µg/mL
- IC50 [11]: 10 µg/mL (≈ 26.3 µM)
- EC50 [12]: 1 µg/mL (≈ 2.63 µM)
- IC50 [13]: 5 µg/mL (≈ 13.2 µM)
- EC50 [14]: > 25 µg/mL
- Toxicity [15, 32]: 50 µg/mL
- Toxicity ([15]; Table II): 50 µg/mL
- Toxicity ([15]; Table III): 50 µg/mL
- IC50 [16]: > 25 µg/mL
- IC50 [17]: 5 µg/mL (≈ 13.2 µM)
- All Rhinovirus Serotypes (number of serotypes active / tested) [18]: 14
- IC50 [19]: 25 µg/mL (≈ 65.9 µM)
- IC50 [20]: 5 µg/mL (≈ 13.2 µM)
- IC50 [21]: 5 µg/mL (≈ 13.2 µM)
- IC50 [22]: 5 µg/mL (≈ 13.2 µM)
- EC50 [23]: < 0.5 µg/mL
- EC50 [24]: 1 µg/mL (≈ 2.63 µM)
- EC50 [25]: < 0.5 µg/mL
- IC50 [26]: 1 µg/mL (≈ 2.63 µM)
- EC50 [27]: 5 µg/mL (≈ 13.2 µM)
- inhibitory activity against the members of the Entero virus family [28]: remarkable inhibitory activity
- All Enterovirus Serotypes (number of serotypes active / tested) [28]: 6
- EC50 [29]: > 25 µg/mL
- EC50 [30]: 5 µg/mL (≈ 13.2 µM)

Structure (SMILES): Cc1cc(CCCCCCCOc2ccc(C3=NCCO3)cc2)on1 [Disoxaril, reference compound]
- EC50 [1]: 25 µg/mL (≈ 73 µM)
- EC50 [2]: 25 µg/mL (≈ 73 µM)
- EC50 [3]: < 0.5 µg/mL
- IC50 [4]: 10 µg/mL (≈ 29.2 µM)
- EC50 [5, 31]: 10 µg/mL (≈ 29.2 µM)
- EC50 ([5]; Table II, one of seven commonest serotypes, read-out: MIC 50 Rhinovirus Type 1A): 25 µg/mL (≈ 73 µM)
- EC50 [6]: 25 µg/mL (≈ 73 µM)
- IC50 [7]: 25 µg/mL (≈ 73 µM)
- IC50 [8]: 5 µg/mL (≈ 14.6 µM)
- EC50 [9]: > 25 µg/mL
- IC50 [10]: > 25 µg/mL
- IC50 [11]: 10 µg/mL (≈ 29.2 µM)
- EC50 [12]: 5 µg/mL (≈ 14.6 µM)
- IC50 [13]: 5 µg/mL (≈ 14.6 µM)
- EC50 [14]: > 25 µg/mL
- Toxicity [15, 32]: 50 µg/mL
- Toxicity ([15]; Table II): 50 µg/mL
- Toxicity ([15]; Table III): 50 µg/mL
- IC50 [16]: 5 µg/mL (≈ 14.6 µM)
- IC50 [17]: < 0.5 µg/mL
- All Rhinovirus Serotypes (number of serotypes active / tested) [18]: 17
- IC50 [19]: 10 µg/mL (≈ 29.2 µM)
- IC50 [20]: 0.5 µg/mL (≈ 1.46 µM)
- IC50 [21]: 5 µg/mL (≈ 14.6 µM)
- IC50 [22]: 10 µg/mL (≈ 29.2 µM)
- EC50 [23]: < 0.5 µg/mL
- EC50 [24]: 25 µg/mL (≈ 73 µM)
- EC50 [25]: 0.5 µg/mL (≈ 1.46 µM)
- IC50 [26]: 0.5 µg/mL (≈ 1.46 µM)
- EC50 [27]: 5 µg/mL (≈ 14.6 µM)
- All Enterovirus Serotypes (number of serotypes active / tested) [28]: 7
- EC50 [29]: 10 µg/mL (≈ 29.2 µM)
- EC50 [30]: 5 µg/mL (≈ 14.6 µM)

Reference: patent US5026848A, “Novel generation of heteroaryloxyalkyl heterocycles with antipicornaviruses activities” (Synphar Laboratories Incorporated, priority 1988, dated 1991)
